Where two headings read alike, the source gives them in different places.
What was measured:
Format in all cases: cell-based
[1] = target: T1, recombinant human ghrelin receptor (HEK293/GRLN) (Homo sapiens, UniProt Q92847); test: Ghrelin inverse agonist potency (EC50) with IP-1 (IP-One HTRF) assay; settings: IP-1 assay
T1 construct: expressed in transfected cells
How it was run: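 HEK293/GRLN cells were seeded 18-22 hours before the test, then exposed to compound in stimulation buffer for 1 hour at 37° C, 5% CO2. IP-1 was detected by IP-One HTRF (IP1-d2 plus Tb-cryptate, 1 hour RT), reading 620 and 665 nm; the inverse agonist EC50 was derived from this.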

[2] = target: T2, GHSR-1a (HEK293/GHSR1a cell line) (Homo sapiens, UniProt Q92847); test: Ghrelin agonist potency (EC50) with calcium FLIPR assay
T2 construct: expressed in transfected cells; host or cells: HEK293/GHSR1a cell line
T2 sequence (Q92847 whole entry): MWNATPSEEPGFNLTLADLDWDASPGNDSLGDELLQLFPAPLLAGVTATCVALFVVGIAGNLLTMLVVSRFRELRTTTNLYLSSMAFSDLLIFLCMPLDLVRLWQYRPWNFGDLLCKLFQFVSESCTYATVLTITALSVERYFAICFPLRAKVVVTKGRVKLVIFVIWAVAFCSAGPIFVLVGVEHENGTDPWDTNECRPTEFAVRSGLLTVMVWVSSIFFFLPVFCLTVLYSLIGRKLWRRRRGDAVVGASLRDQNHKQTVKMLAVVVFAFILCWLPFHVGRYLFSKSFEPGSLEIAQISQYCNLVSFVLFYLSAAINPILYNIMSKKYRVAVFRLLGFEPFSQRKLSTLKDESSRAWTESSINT
Experimental: Evaluation of Ghrelin Agonist (EC50) and Antagonist Potency (IC50) with Calcium FLIPR Assay:
The intracellular calcium assay was carried out in a 384-well format FLIPR™ (Molecular Device) HEK293/GHSR1a cell line. Cells were seeded 24 hr prior to the experiments at an optimal density per well. Preincubation with selected calcium dye lasted for 30-60 min at room temperature or 37° C. Test compounds, dissolved in DMSO, were added at the appropriate time and incubated for 15 min followed by the addition of ghrelin with FlexStation or FLIPR. Relative fluorescence was monitored by the FLIPR™ Molecular Device. EC50 and IC50 values were estimated from dose-response data using GraphPad Prism software. To check for GHSR-1a agonism, the compound was added at t=20 sec. and the calcium response was followed for 2 minutes. To check for GHSR-1a antagonism, the compound and Ghrelin (10 nM) were added to the cells at t=20 sec. and the calcium response was measured for 2 minutes. The potency of the antagonist was calculated by its ability to reduce the ghrelin response. Dose-response curves were made for relevant antagonists.

[3] = target: T2, GHSR-1a (HEK293/GHSR1a cell line); test: Ghrelin antagonist potency (IC50) with calcium FLIPR assay, ghrelin 10 nM
How it was run: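 HEK293/GHSR1a cells, seeded 24 hr ahead and loaded with calcium dye 30-60 min, were read by FLIPR fluorescence for 2 min after addition at t=20 sec. Agonism: compound alone, EC50 from dose-response. Antagonism: compound plus 10 nM ghrelin, IC50 from reduction of ghrelin response.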

[4] = HEK293/GRLN, read-out: Activity EC50 (ghrelin inverse agonist potency)
[5] = HEK293/GHSR1a, read-out: Activity EC50/EMax: EC50 (ghrelin agonist potency)
[6] = HEK293/GHSR1a, ghrelin 10 nM, read-out: Activity IC50 (ghrelin antagonist potency)
[7] = ghrelin inverse agonist potency, read-out: Activity EC50
[8] = ghrelin agonist potency, read-out: Activity EC50/EMax
[9] = ghrelin antagonist potency, read-out: Activity IC50

T1 sequence (Q92847 whole entry): as above

Structure (SMILES) | EC50 [1, 4] [µM] | EC50 [2, 5] [µM] | IC50 [3, 6] [µM] | EC50 [1, 7] [µM] | EC50 [2, 8] [µM] | IC50 [3, 9] [µM]
CC(NC(=O)Nc1ccc(S(=O)(=O)Cc2ccc3c(c2)CNC3)cc1)c1cc(N2CCOCC2)ccc1Cl (stereo not drawn) [H1283, 1-(1-(2-chloro-5-morpholinophenyl)ethyl)-3-(4-((isoindolin-5-ylmethyl)sulfonyl)phenyl)urea] | 0.201 | > 30 | 0.379 | – | – | –
CC(c1ccccc1)N(C)C(=O)Nc1ccc(S(=O)(=O)Cc2ccc3c(c2F)CNC3)cc1 (stereo not drawn) [H1409, 3-(4-(((4-fluoroisoindolin-5-yl)methyl)sulfonyl)phenyl)-1-methyl-1-(1-phenylethyl)urea] | 0.0745 | > 30 | 0.282 | – | – | –
CC(NC(=O)Nc1ccc(S(=O)(=O)Cc2ccc3c(c2)CNC3)c(C(N)=O)c1)c1ccccc1 (stereo not drawn) [H1531, 2-((isoindolin-5-ylmethyl)sulfonyl)-5-(3-(1-phenylethyl)ureido)benzamide] | – | – | – | 0.444 | > 30 | 0.418
CC(NC(=O)Nc1ccc(S(=O)(=O)Cc2ccc3c(c2)CNC3)cc1C(=O)O)c1cccc(Cl)c1Cl (stereo not drawn) [H1549, 2-(3-(1-(2,3-dichlorophenyl)ethyl)ureido)-5-((isoindolin-5-ylmethyl)sulfonyl)benzoic acid] | – | – | – | 0.0012 | > 30 | 0.00169
COc1cc(S(=O)(=O)Cc2ccc3c(c2)CCNC3)ccc1NC(=O)N(C)C(C)c1cccc(Cl)c1Cl (stereo not drawn) [H1443, 1-(1-(2,3-dichlorophenyl)ethyl)-3-(2-methoxy-4-(((1,2,3,4-tetrahydroisoquinolin-6-yl)methyl)sulfonyl)phenyl)-1-methylurea] | 0.0858 | > 30 | 0.068 | – | – | –
CC(NC(=O)Nc1ccc(S(=O)(=O)Cc2ccc3c(c2)CN(CC#N)C3)cc1)c1ccccc1 (stereo not drawn) [H1339, 1-(4-(((2-(cyanomethyl)isoindolin-5-yl)methyl)sulfonyl)phenyl)-3-(1-phenylethyl)urea] | 0.176 | > 30 | 0.309 | – | – | –
C[C@H](NC(=O)Nc1ccc(S(=O)(=O)CC2CCNCC2)cc1)c1ccccc1 [H1303, (S)-1-(1-phenylethyl)-3-(4-((piperidin-4-ylmethyl)sulfonyl)phenyl)urea] | > 30 | > 30 | > 30 | – | – | –
COc1ccc(CNC(=O)Nc2ccc(S(=O)(=O)Cc3ccc4c(c3)CN(C)C4)cc2)cc1Cl [H1478, 1-(3-chloro-4-methoxybenzyl)-3-(4-(((2-methylisoindolin-5-yl)methyl)sulfonyl)phenyl)urea] | – | – | – | 0.0196 | > 30 | 0.0403
CC(NC(=O)Nc1ccc(S(=O)(=O)Cc2ccc3c(c2)CN(C)C3)cc1)c1cncnc1 (stereo not drawn) [H1309, 1-(4-(((2-methylisoindolin-5-yl)methyl)sulfonyl)phenyl)-3-(1-(pyrimidin-5-yl)ethyl)urea] | 1.84 | > 30 | 4.5 | – | – | –
CC(NC(=O)Nc1ccc(S(=O)(=O)CC2=CCC3CCC2N3C(C)C)cc1)c1cccc(Cl)c1Cl (stereo not drawn) [H1514, 1-(1-(2,3-dichlorophenyl)ethyl)-3-(4-(((8-isopropyl-8-azabicyclo[3.2.1]oct-2-en-2-yl)methyl)sulfonyl)phenyl)urea] | – | – | – | 0.0176 | > 30 | 16.2
CC(NC(=O)Nc1ccc(S(=O)(=O)Cc2cc3c(cc2F)CN(C)CC3)cc1)c1cccc(Cl)c1Cl (stereo not drawn) [H1366, 1-(1-(2,3-dichlorophenyl)ethyl)-3-(4-(((7-fluoro-2-methyl-1,2,3,4-tetrahydroisoquinolin-6-yl)methyl)sulfonyl)phenyl)urea] | 0.0025 | > 30 | 0.0215 | – | – | –
CC(NC(=O)Nc1ccc(S(=O)(=O)Cc2ccc3c(c2)CNC3)cc1F)c1ccccc1 (stereo not drawn) [H1316, 1-(2-fluoro-4-((isoindolin-5-ylmethyl)sulfonyl)phenyl)-3-(1-phenylethyl)urea] | 0.0116 | > 30 | 0.0309 | – | – | –
CC(NC(=O)Nc1ccc(S(=O)(=O)Cc2ccc3c(c2)CNC3)cc1C(C)(C)O)c1ccccc1 (stereo not drawn) [H1512, 1-(2-(2-hydroxypropan-2-yl)-4-((isoindolin-5-ylmethyl)sulfonyl)phenyl)-3-(1-phenylethyl)urea] | – | – | – | 0.273 | > 30 | 0.582
C[C@H](NC(=O)Nc1ccc2c(c1)CC(c1ccc3c(c1)CN(C)C3)S2(=O)=O)c1ccccc1 (stereo partly drawn) [H1285, 1-(2-(2-methylisoindolin-5-yl)-1,1-dioxido-2,3-dihydrobenzo[b]thiophen-5-yl)-3-((S)-1-phenylethyl)urea] | – | 0.147 | 0.065 | – | – | –
C[C@H](NC(=O)Nc1ccc(S(=O)(=O)Cc2ccc3c(c2)C2CCC3N2C)cc1)c1ccccc1 (stereo partly drawn) [H1325, 1-(4-(((9-methyl-1,2,3,4-tetrahydro-1,4-epiminonaphthalen-6-yl)methyl)sulfonyl)phenyl)-3-((S)-1-phenylethyl)urea] | – | > 30 | 3.83 | – | – | –
CCc1ccc(Cl)c(C(=O)NC(=O)Nc2ccc(S(=O)(=O)Cc3ccc(CO)cc3)cc2)c1 [H1255, 2-chloro-5-ethyl-N-((4-((4-(hydroxymethyl)benzyl)sulfonyl)phenyl)carbamoyl)benzamide] | – | > 30 | 2.33 | – | – | –
CC(NC(=O)Nc1ccc(S(=O)(=O)CC2CCCN(CC3CCCO3)C2)cc1)c1cccc(Cl)c1Cl (stereo not drawn) [H1375, 1-(1-(2,3-dichlorophenyl)ethyl)-3-(4-(((1-((tetrahydrofuran-2-yl)methyl)piperidin-3-yl)methyl)sulfonyl)phenyl)urea] | – | > 30 | > 30 | – | – | –
C[C@H](NC(=O)Nc1ccc(S(=O)(=O)Cc2ccc(CN3CCC(CO)C3)cc2)cc1)c1ccccc1 (stereo partly drawn) [H1314, 1-(4-((4-((3-(hydroxymethyl)pyrrolidin-1-yl)methyl)benzyl)sulfonyl)phenyl)-3-((S)-1-phenylethyl)urea] | – | > 30 | 3.1 | – | – | –
CCN(CC)CCCS(=O)(=O)c1ccc(NC(=O)NC(C)c2cccc(Cl)c2Cl)cc1 (stereo not drawn) [H1361, 1-(1-(2,3-dichlorophenyl)ethyl)-3-(4-((3-(diethylamino)propyl)sulfonyl)phenyl)urea] | – | > 30 | 1.61 | – | – | –
CC(NC(=O)Nc1ccc(S(=O)(=O)Cc2ccc3nn(C)cc3c2)cc1)c1ccccc1 (stereo not drawn) [H1329, 1-(4-(((2-methyl-2H-indazol-5-yl)methyl)sulfonyl)phenyl)-3-(1-phenylethyl)urea] | – | > 30 | > 30 | – | – | –
CC(c1ccccc1)N(C)C(=O)Nc1ccc(S(=O)(=O)Cc2ccc3c(c2)CNC3)cc1F (stereo not drawn) [H1399, 3-(2-fluoro-4-((isoindolin-5-ylmethyl)sulfonyl)phenyl)-1-methyl-1-(1-phenylethyl)urea] | – | > 30 | 2.06 | – | – | –
CCc1ccc(Cl)c(C(=O)NC(=O)Nc2ccc(S(=O)(=O)Nc3ccc4c(c3)CNC4)cc2)c1 [H1259, 2-chloro-5-ethyl-N-((4-(N-(isoindolin-5-yl)sulfamoyl)phenyl)carbamoyl) benzamide] | – | > 30 | 0.272 | – | – | –
CC(NC(=O)Nc1ccc(S(=O)(=O)N2CC3CNCC3C2)cc1)c1ccccc1 (stereo not drawn) [H1277, 1-(4-((hexahydropyrrolo[3,4-c]pyrrol-2(1H)-yl)sulfonyl)phenyl)-3-(1-phenylethyl)urea] | – | > 30 | 8.76 | – | – | –
CC1Cc2cc(CS(=O)(=O)c3ccc(NC(=O)NC(C)c4cccc(Cl)c4Cl)c(F)c3)ccc2CN1 (stereo not drawn) [H1401, 1-(1-(2,3-dichlorophenyl)ethyl)-3-(2-fluoro-4-(((3-methyl-1,2,3,4-tetrahydroisoquinolin-6-yl)methyl)sulfonyl)phenyl)urea] | – | > 30 | 0.0034 | – | – | –
C[C@H](NC(=O)Nc1ccc(S(=O)(=O)Nc2ccc3c(c2)CCN(C)C3)cc1)c1ccccc1 [H1315, (S)-N-(2-methyl-1,2,3,4-tetrahydroisoquinolin-6-yl)-4-(3-(1-phenylethyl)ureido) benzenesulfonamide] | – | > 30 | 0.301 | – | – | –
C[C@H](NC(=O)Nc1ccc(S(=O)(=O)Cc2ccc(C3CCCN3)cc2)cc1)c1ccccc1 (stereo partly drawn) [H1328, 1-((S)-1-phenylethyl)-3-(4-((4-(pyrrolidin-2-yl)benzyl)sulfonyl)phenyl)urea] | – | > 30 | 0.546 | – | – | –
CC(NC(=O)Nc1ccc(S(=O)(=O)Cc2ccncc2)cc1)c1ccccc1 (stereo not drawn) [H1280, 1-(1-phenylethyl)-3-(4-((pyridin-4-ylmethyl)sulfonyl)phenyl)urea] | – | > 30 | 0.905 | – | – | –
CC(NC(=O)Nc1ccc(S(=O)(=O)Cc2cccc(CN3CCCC3)c2)cc1)c1ccccc1 (stereo not drawn) [H1318, 1-(1-phenylethyl)-3-(4-((3-(pyrrolidin-1-ylmethyl)benzyl)sulfonyl)phenyl)urea] | – | > 30 | 5.31 | – | – | –

From patent US10501479B2, “Benzenesulfonyl-asymmetric ureas and medical uses thereof” (HELSINN HEALTHCARE SA, priority 2016, dated 2019)
